{"source": "patent US10023841B2", "about": "“Methods and compositions for treating breast cancer with dendritic cell vaccines” (Baylor Research Institute, priority 2014, dated 2018)", "molecules": {"B1": {"name": "IL-1α: cytokine obtained from R&D (protein, UniProt P01583 113-271, looked up)", "Interleukin-1 alpha": "SAPFSFLSNVKYNFMRIIKYEFILNDALNQSIIRANDQYLTAAALHNLDEAVKFDMGAYKSSKDDAKITVILRISKTQLYVTAQDEDQPVLLKEMPEIPKTITGSETNLLFFWETHGTKNYFTSVAHPNLFIATKQDYWVCLAGGPPSITDFQILENQA"}}, "key": {"[1]": {"tested_on": "Hs-578t breast cancer cells", "experiment": "Tumor growth of Hs-578t xenograft in irradiated NOD/SCID/β2m−/− mice reconstituted with DCs and T cells", "format": "in vivo", "procedure": "(§1) NOD/SCID/β2 m^−/− mice ([…]) were sublethally irradiated (12 cGy/g body weight of 137Cs γ irradiation) the day before tumor implantation. Then 10 million Hs-578t breast cancer cells harvested from cultures were injected subcutaneously into the flanks. Mice were then reconstituted with 1 million monocyte-derived DCs (MDDCs) and autologous T cells. CD4^+ and CD8^+ T cells were positively selected from thawed PBMCs using magnetic selection according to the manufacturer's instructions (Miltenyi Biotec). The purity was routinely >90%. 10 million CD4^+ T cells and 10 million CD8^+ T cells were transferred at days 3, 6, and 9 after tumor implantation. MDDCs were generated from the adherent fraction of PBMCs by culturing with 100 ng/ml GM-CSF and 10 ng/ml IL-4 (R&D Systems). Anakinra (2 mg/kg body weight) or PBS were injected daily in peritumor area since day 3 after tumor engraftment. 200 ug TSLPR blocking antibody was given on day 3,6,9. In some experiments, TGF-13 blocking antibody was given on day 3,6,9. Tumor size was monitored every 2-3 d. Tumor volume (ellipsoid) was calculated as follows: ([short diameter]^2×long diameter)/2. On day 16, the tumors were harvested. In some experiments, only one time DCs and total T cells transfer was done. Cell suspension was obtained from breast cancer tissue of above mice. Cell suspensions were obtained by digestion with 2.5 mg/ml of collagenase D (Roche Diagnostics, Indianapolis, Ind.), and 200 U/ml of DNAse I (Sigma-Aldrich, St. Louis, Mo.) for 30 minutes at 37° C. Washed three times and analyzed with FACS-CantoII (Becton Dickinson).\nThus, involvement of IL-1β in the TSLP-dependent in vivo model was evaluated. The availability of IL-1β in the xenograft mice model was first evaluated. HS-578t cells were injected subcutaneously into the flank of irradiated NOD/SCID/β2 m^−/− mice. MDDCs plus autologous total T cells were injected intratumorally on D3,6, and 9 after tumor cells injection (FIG. 15A). When tumors grew to 100-150 mm^3 in volume, mice were sacrificed and tumors were frozen in OCT for tissue staining. Similar with what observed in patient primary tumors (FIG. 5), IL-1β^+ cells also infiltrated in the tumor of xenograft model (FIG. 15B). […] Then we tried to understand whether TGF-β or IL-1β blocking could affect tumor growth through affecting the availability of IL-1β. Anti-TGF-β neutralizing antibody, isotype antibody as control, IL-1R antagonist Anakinra, or anti-TSLPR neutralizing antibody were each injected together with DC plus T cells (FIG. 15A). […] In some experiments, small pieces of tumor tissue from mice were cultured for 16 hours in the presence of PMA and ionomycin. Th2 cytokines were measured by Luminex in the culture sups (FIG. 8B)."}, "[2]": {"tested_on": "Th2 cytokines", "experiment": "Cytokines by Luminex in supernatants of day 16 mouse tumor fragments stimulated with PMA and ionomycin", "format": "in vivo, mice", "settings": "day 16 tumors; versus PBS group", "procedure": "as §1\nThus, involvement of IL-1β in the TSLP-dependent in vivo model was evaluated. The availability of IL-1β in the xenograft mice model was first evaluated. HS-578t cells were injected subcutaneously into the flank of irradiated NOD/SCID/β2 m^−/− mice. MDDCs plus autologous total T cells were injected intratumorally on D3,6, and 9 after tumor cells injection (FIG. 15A). […] Th2 cytokines were measured by Luminex in the culture sups (FIG. 8B)."}, "[3]": {"tested_on": "CD4^+CD3^+T cells", "experiment": "Intracellular cytokine FACS of CD4+CD3+ T cells from xenograft tumors", "format": "in vivo, mice", "procedure": "as §1\nTo confirm whether the decreased IL-13 level is due to less infiltration of IL-13 producing cells, single cell suspensions were prepared from the tumors harvested from both the PBS and the Anakinra treatment groups. Intracellular staining for cytokines including IL-13, IL-4, TNF-α, and IFN-γ were combined with CD4, CD3 surface staining. Cells were analyzed by FACS, and gated on viable CD4^+CD3^+T cells. […] In the PBS group, about 10.2-46.4% of CD4^+CD3^+T cells express IL-13. […]"}, "[4]": {"settings": "pediatric patients with SOJIA; cited from earlier work"}, "[5]": {"settings": "100 mg daily SC; cited from earlier work"}, "[6]": {"target": "T1, caspase-1 (Homo sapiens, UniProt P29466)", "T1 construct": "MDA-MB231 cells and mDCs were co-cultured in chamber well; endogenous in cells; host or cells: human blood mDCs co-cultured with MDA-MB231 cells", "T1 sequence (P29466 120-297 limits assumed)": "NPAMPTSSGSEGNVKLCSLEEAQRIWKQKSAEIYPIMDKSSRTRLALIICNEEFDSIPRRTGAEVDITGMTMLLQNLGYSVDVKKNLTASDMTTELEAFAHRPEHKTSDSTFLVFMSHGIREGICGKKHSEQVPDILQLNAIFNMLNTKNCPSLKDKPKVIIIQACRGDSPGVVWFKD", "T1 sequence (P29466 317-404 limits assumed)": "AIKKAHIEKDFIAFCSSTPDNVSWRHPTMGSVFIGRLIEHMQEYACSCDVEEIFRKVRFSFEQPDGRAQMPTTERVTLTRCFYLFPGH", "experiment": "MDA-MB231/mDC co-culture with caspase-1 inhibitor: proIL-1β and mature IL-1β staining", "format": "cell-based", "procedure": "In most cases, caspase-1 is needed for proteolytic cleavage and secretion of mature IL-1β. It was tested whether TGF-β-dependent IL-1β production also required the activation of caspase-1. MDA-MB231 cells and mDCs were co-cultured in chamber well in presence of 1 uM of caspase-1 inhibitor or DMSO as vehicle control. 18 hours later, cells were fixed and stained with specific antibody against pro-peptide of IL-1β (FIG. 7A), or mature IL-1β (FIG. 7B), both accompanied with HLA-DR staining. […] Four areas were counted for the percentage of proIL-1β^+ cells within HLA-DR^+ cells for both DMSO or caspase-1 inhibitor treated wells. Almost 95% of mDCs show accumulation of proIL-1β intracellularly, while only around 50% of mDCs express proIL-1β (FIG. 7A right panel). Using a similar experimental system, mature IL-1β production in presence or absence of caspase-1 inhibitor was also measured."}, "[7]": {"tested_on": "HS-578t or MDA-MB231 cells", "experiment": "TSLP induction in breast cancer cell lines by cytokines (real-time PCR, Luminex)", "format": "cell-based, human", "settings": "for TSLP mRNA level by quantitative real-time PCR: HS-578t and MDA-MB231 cells, 10 ng/ml, as early as 2 hours", "procedure": "[…] For tumor cells and mDCs coculture experiment, 100 k tumor cells were seeded in 24 well plate to grow overnight, then media was refreshed and 100 k mDCs were added to coculture for another 24-72 h. For the transwell experiment, 24-well-plate with inserts were used (Corning). 200K tumor cells were seeded in the plate to grow at least overnight, then 200 k mDCs were added into inserts. After 48 h of co-culture, supernantants were harvested to determine IL-1β level by ELISA (Duoset, R&D System).\nSamples were treated and lysed with Buffer RLT, and then stored at −80° C. until RNA extraction. Total RNA was isolated and purified from each sample by using RNeasy kit and RNase-free DNase (Qiagen) according to the manufacturer's instructions. cDNA was generated from total RNA with iScript™ cDNA Synthesis Kit. The resulting cDNA was then used for quantitative gene expression analysis on a Sequence Detection System 7,500 (Applied Biosystems). The primers used were as follows: human (h)TSLP, 5′-[…]-3′ (SEQ ID NO:41) and 5′-[…]-3 (SEQ ID NO:42), and human (h)IL-1β, 5′-[…]-3′ (SEQ ID NO:43) and 5′-[…]-3′ (SEQ ID NO:44), human (h) GAPDH, 5′-[…]-3′ (SEQ ID NO:45) and 5′-[…]-3′ (SEQ ID NO:46), human (h) ABL1, 5′-[…]-3′ (SEQ ID NO:47) and 5′ […]-3′ (SEQ ID NO:48), human (h) PGK1, 5′-[…]-3′ (SEQ ID NO:49) and 5′-[…]-3′ (SEQ ID NO:50), human (h) PES1, 5′-[…]-3′ (SEQ ID NO:51) and 5′-A […]-3′ (SEQ ID NO:52). Equal amounts of cDNA were used with the iTaq SYBR Green Supermix with ROX (Bio-Rad) and primer mix according to the real-time PCR protocols supplied by the manufacturer. Amplification efficiencies were validated against the housekeeping gene, GAPDH, PES1, and ABL1. […] The relative quantification of target gene expression was done by the comparative cycle threshold (CT) method. […]\nDifferent pro-inflammatory cytokines have the potential to induce TSLP from keratinocytes, both transcriptionally and translationally. […] Cells were harvested and TSLP mRNA levels were measured by quantitative real-time PCR (FIG. 4A). […] TSLP levels in the culture supernatants were determined by Luminex. […]"}, "[8]": {"settings": "xenograft model, summary statement"}, "[9]": {"settings": "tumors harvested from Anakinra treatment group"}}, "note": "The star is where a group is joined. Cbz = O=C(OCc1ccccc1)*; CH2F = FC*", "data": [{"molecule": "Anakinra: recombinant soluble non-glycosylated homolog of the human interleukin-1 receptor antagonist (IL-1Ra)", "values": [{"measurement": "tumor volume (mean)", "setting": "[1]; day 16, Anakinra 2 mg/kg daily peritumoral since day 3", "value": 13, "unit": "mm^3"}, {"measurement": "tumor volume increase in PBS group compared to the Anakinra group", "setting": "[1]; end of the observation, day 16", "value": "~10", "unit": "fold"}, {"measurement": "OX40L+ expression on DCs", "setting": "[1]; in vivo", "value": "blocks OX40L+ expression on DCs"}, {"measurement": "tumor growth in vivo", "setting": "[1]; [8]", "value": "prevents tumor growth in vivo"}, {"measurement": "IL-4 in tumor tissue culture sups", "setting": "[2]", "value": "less IL-4"}, {"measurement": "IL-13 in tumor tissue culture sups", "setting": "[2]", "value": "less IL-13"}, {"measurement": "TSLP production in tumor tissue", "setting": "[2]", "value": "less TSLP production"}, {"measurement": "CD4^+CD3^+T cells expressing IL-13", "setting": "[3]; [9]", "value": "0.39-2.5%"}, {"measurement": "effect on TNF-α and IFN-γ in CD4^+CD3^+T cells", "setting": "[3]; [9]", "value": "no specific effect on TNF-α and IFN-γ"}, {"measurement": "iTh2 generation in vivo", "setting": "[3]; [8]", "value": "blocks iTh2 generation in vivo"}, {"measurement": "patients with remarkable clinical and hematological responses", "setting": "[4]", "value": "> 70 % of patients"}, {"measurement": "most common adverse reaction", "setting": "[5]", "value": "injection site reaction"}, {"measurement": "safety profile", "setting": "[5]", "value": "favorable safety profile"}]}, {"molecule": "Cbz-WEHD-CH2F [caspase-1 inhibitor]", "values": [{"measurement": "percentage of proIL-1β+ cells within HLA-DR+ cells", "setting": "[6]; 1 uM caspase-1 inhibitor, MDA-MB231 cells and mDCs co-cultured 18 hours", "value": "~95", "unit": "%"}, {"measurement": "mature IL-1β staining", "setting": "[6]; caspase-1 inhibitor, MDA-MB231 cells and mDCs co-culture", "value": "less mature IL-1β was detected"}]}, {"molecule": "IL-1β: cytokine obtained from R&D", "values": [{"measurement": "TSLP mRNA level by quantitative real-time PCR", "setting": "[7]", "value": "induce significant TSLP transcription"}, {"measurement": "TSLP levels in the culture supernatants (Luminex)", "setting": "[7]; MDA-MB231 cells, different doses, 48 hours", "value": "induce TSLP production in a dose-dependent manner"}]}, {"molecule": "B1", "values": [{"measurement": "TSLP mRNA level by quantitative real-time PCR", "setting": "[7]", "value": "induce significant TSLP transcription"}]}]}
